This is an account of results in ChEMBL document CHEMBL1201862, “PubChem BioAssay data set” (2004).

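Briefly, cells in 96-well plates were exposed to five compound concentrations for 48 h, and endpoints were estimated by linear interpolation. GI50 is the concentration that inhibits growth by half.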 Calls of active or inactive are those of the source. Cut-off read from the data, not from the text of the source: active = GI50 up to about 1.1 µM and inactive = higher.

Among the test systems are SK-OV-3; DU-145; A498; OVCAR-4; KM12; MOLT-4; TK-10; Malme-3M; PC-3; UACC-257; T47D; HOP-62; SF-539; SR; LOX IMVI; OVCAR-8; SW-620; Hs-578T.
Assay in all cases: NCI-60 cell line screen, 48 h

Turning to `C=CCOC(=O)C1=C(CCC[C@@H](C)O[Si](C)(C)C(C)(C)C)N=C(N)N2[C@H](CCO)CC[C@@H]12`, the GI50 in the test on SK-OV-3 was 14.1 µM (inactive); in the test on DU-145 it was 14.3 µM (inactive); with A498 it was 18 µM (inactive); in the test with OVCAR-4 it was 10.5 µM (inactive); in the test on KM12 it was 11.3 µM (inactive); in the test on MOLT-4, 10.5 µM (inactive). Moreover, the GI50 in the test with TK-10 is 16.9 µM (inactive); in the test with Malme-3M, 18 µM (inactive); in the test on PC-3 it was 8.45 µM (inactive); in the test on UACC-257, 15.6 µM (inactive); with T47D, 11.8 µM (inactive); in the test with HOP-62, 14.1 µM (inactive).

In the case of `O=c1oc2ccc(Cl)cc2cc1-c1cn2cc(Cl)ccc2n1`, the GI50 in the test with SK-OV-3 was > 100 µM (inactive); in the test with SF-539 it was > 100 µM (inactive); with DU-145, > 100 µM (inactive); in the test on SR it was 0.473 µM (active); in the test with OVCAR-4, > 100 µM (inactive); in the test on KM12 it was 2.54 µM (inactive). The GI50 in the test with MOLT-4 was 6.46 µM (inactive); in the test with TK-10, > 100 µM (inactive); with Malme-3M, 0.698 µM (active); in the test on LOX IMVI, > 28.2 µM (inactive); with PC-3, > 100 µM (inactive); in the test with UACC-257, > 100 µM (inactive). The GI50 is > 57 µM (inactive) in the test with OVCAR-8, > 32.3 µM (inactive) in the test on SW-620, > 100 µM (inactive) in the test on T47D and > 69.3 µM (inactive) in the test with HOP-62.

Regarding `COc1cc2c(c3nc4ccccc4nc13)-c1ccc(SC)c(=O)cc1[C@@H](NC(C)=O)CC2`, the GI50 in the test on SK-OV-3 is 0.266 µM (active); in the test on SF-539, 0.0248 µM (active); in the test with Hs-578T it was 0.0182 µM (active); in the test on DU-145, 0.129 µM (active); in the test with SR it was 0.0158 µM (active); in the test on A498, 0.82 µM (active). The GI50 was 0.0562 µM (active) in the test on OVCAR-4; 0.0193 µM (active) with KM12; 0.0438 µM (active) with MOLT-4; 0.0106 µM (active) in the test with Malme-3M; 0.0542 µM (active) in the test with LOX IMVI; 0.0479 µM (active) with PC-3. Further, the GI50 in the test on UACC-257 was 0.069 µM (active); in the test with OVCAR-8, 0.0815 µM (active); in the test with SW-620, 0.0752 µM (active); with HOP-62, 0.405 µM (active).

On to `CC1SC(=O)SC1C` (configuration not stated), for which the GI50 in the test on SK-OV-3, with SF-539, with Hs-578T, in the test with SR, with OVCAR-4 and with KM12 was > 100 µM (inactive) each time. For the same molecule, the GI50 in the test with MOLT-4, in the test with TK-10, in the test on PC-3, in the test on UACC-257, with OVCAR-8 and with SW-620 was > 100 µM (inactive) throughout. The GI50 in the test with T47D and in the test on HOP-62 was > 100 µM (inactive) throughout.

For `CCN(CC)CCCNc1n[n+]([O-])c2ccccc2[n+]1[O-]`, the GI50 in the test with SF-539 was 20.7 µM (inactive); in the test with DU-145, 18.4 µM (inactive); with SR it was 13.7 µM (inactive); in the test with A498 it was 3.62 µM (inactive); with OVCAR-4, 23.7 µM (inactive); in the test with KM12 it was 15 µM (inactive). The GI50 was 2.73 µM (inactive) with MOLT-4; 4.07 µM (inactive) in the test with TK-10; 11.3 µM (inactive) in the test on Malme-3M; 9.73 µM (inactive) in the test on PC-3; 14.2 µM (inactive) with UACC-257; 8.51 µM (inactive) in the test with OVCAR-8. Further, the GI50 was 15.1 µM (inactive) with SW-620 and 14.3 µM (inactive) in the test on T47D.

As to `Cn1c(=O)n2c(-c3ccccc3)c(-c3ccccc3)n2c1=O`, the GI50 with SK-OV-3, in the test on SF-539, in the test on Hs-578T, in the test with SR, in the test with A498 and in the test on OVCAR-4 was > 100 µM (inactive) in each case. Moreover, the GI50 in the test with KM12, in the test with MOLT-4, in the test with TK-10, in the test on Malme-3M, in the test on LOX IMVI and in the test with PC-3 was > 100 µM (inactive) each time. Besides, the GI50 in the test with UACC-257, in the test on OVCAR-8, in the test on SW-620 and in the test on HOP-62 was > 100 µM (inactive) in each case.

With `O=C(O)c1c(CC(Cc2ccc3c(c2)CCC3)C(=O)O)ccc2c1CCC2` (configuration not stated), the GI50 with SF-539, in the test with Hs-578T, in the test on DU-145, in the test with SR, with A498 and in the test on OVCAR-4 was > 100 µM (inactive) in each case. For the same molecule, the GI50 with KM12, in the test with MOLT-4, in the test on TK-10, with Malme-3M, in the test with LOX IMVI and in the test with PC-3 was > 100 µM (inactive) each time. The GI50 with UACC-257, with OVCAR-8, with SW-620 and in the test with HOP-62 was > 100 µM (inactive) each time.

With `Cc1cccc(C)c1NC(=O)CCC(=O)NC(N)=S`, the GI50 in the test with SK-OV-3, in the test on SF-539, with SR, with A498, in the test on KM12 and in the test with MOLT-4 was > 100 µM (inactive) throughout. The GI50 in the test with TK-10, in the test with Malme-3M, in the test with LOX IMVI, in the test with UACC-257, in the test with OVCAR-8 and in the test on SW-620 was > 100 µM (inactive) each time. Besides, the GI50 in the test on HOP-62 is > 100 µM (inactive).

For `CC(=O)c1ccc(NC(=O)C(=O)C(C#N)CC(C)(C)C=O)cc1` (configuration not stated), the GI50 in the test with SK-OV-3, with SF-539, in the test on SR, in the test on A498, with OVCAR-4 and with KM12 was > 100 µM (inactive) throughout. Besides, the GI50 in the test with MOLT-4, in the test with TK-10, in the test on Malme-3M, in the test on LOX IMVI, in the test on UACC-257 and in the test with OVCAR-8 was > 100 µM (inactive) throughout. Besides, the GI50 with SW-620 and with HOP-62 was > 100 µM (inactive) each time.

`O=C1N/C(=N/N=C/C(O)C(O)C(O)CO)N/C1=C\c1ccco1` (configuration not stated): the GI50 in the test on SK-OV-3, in the test with SF-539, with Hs-578T, in the test on DU-145, with A498 and with OVCAR-4 was > 100 µM (inactive) each time. The GI50 in the test on KM12, in the test on MOLT-4, in the test on TK-10, with Malme-3M, in the test with LOX IMVI and with UACC-257 was > 100 µM (inactive) throughout. The GI50 with OVCAR-8, in the test with SW-620, in the test with T47D and in the test on HOP-62 was > 100 µM (inactive) throughout.

As to `COc1ccc(N[S+]([O-])C2CCCCC2)cc1` (configuration not stated), the GI50 with SF-539, in the test with Hs-578T, in the test on DU-145, in the test with SR, with KM12 and in the test on MOLT-4 was > 100 µM (inactive) in each case. In addition, the GI50 in the test on TK-10, with Malme-3M, in the test with LOX IMVI, with UACC-257, in the test on OVCAR-8 and in the test with SW-620 was > 100 µM (inactive) throughout. Moreover, the GI50 in the test on HOP-62 is 91.8 µM (inactive).

As to `O=C1C(C(O)(C(F)(F)Cl)C(F)(F)Cl)CCCC1C(O)(C(F)(F)Cl)C(F)(F)Cl` (configuration not stated), the GI50 with SK-OV-3, with SF-539, in the test with Hs-578T, in the test with DU-145, in the test on A498 and in the test with OVCAR-4 was > 10 µM (inactive) each time. The GI50 with KM12, in the test with TK-10, with Malme-3M, in the test on LOX IMVI, in the test on PC-3 and in the test with UACC-257 was > 10 µM (inactive) each time. Further, the GI50 in the test on OVCAR-8, in the test with SW-620, with T47D and with HOP-62 was > 10 µM (inactive) each time.

Turning to `NCCCN(CCCCN(CCCN)C(=O)OCc1ccccc1)C(=O)OCc1ccccc1`, the GI50 in the test on SK-OV-3 was > 100 µM (inactive); in the test with SF-539 it was > 100 µM (inactive); in the test with Hs-578T, 20.6 µM (inactive); in the test on DU-145, > 100 µM (inactive); in the test with A498, > 100 µM (inactive); with OVCAR-4 it was > 100 µM (inactive). Besides, the GI50 was > 100 µM (inactive) in the test on KM12; 47.9 µM (inactive) with MOLT-4; > 100 µM (inactive) with TK-10; 39.8 µM (inactive) with LOX IMVI; 45.8 µM (inactive) with PC-3; 93.5 µM (inactive) in the test with UACC-257. The GI50 with OVCAR-8, in the test on SW-620, in the test with T47D and with HOP-62 was > 100 µM (inactive) each time.
